We go through three compounds from US20070275911A1, “Targeted Drug-Formaldehyde Conjugates and Methods of Making and Using the Same” (priority 2003, published 2007).

Series [1] deals with MDA-MB-435 cells. Nature of the series: Growth inhibition assay (Example 6). It is filed as cell-based, human. As to conditions: read-out: IC50 for inhibition of cell growth (nM), treatment time. The procedure: […] Cells were quantified via measuring crystal violet staining or cellular metabolism of MTT. For every experiment, each condition was performed in hexuplicate; experiments were performed at least twice.
Cancer cell growth inhibition: acyclic-RGD-4C-DOXSF and cyclic-(N-Me-VRGDf-NH)-DOXSF were also assayed for their ability to inhibit growth of MDA-MB-435 cells relative to DOX and DOXSF. Cells treated in cell culture plates and non-treated (-control) cells were allowed to grow to near confluency, and then quantified via measuring crystal violet staining or cellular metabolism of MTT. […] Earlier control experiments established that the miniscule amounts of formaldehyde that would be released even from complete hydrolysis of the conjugate would contribute nothing to the observed growth inhibition. Conjugation of cytotoxic drugs to triggers and targeting groups often causes a drop in cytotoxicity.

The subject of series [2] is PC-3 prostate cancer cells. Nature of the series: Cytotoxicity, crystal violet colony assay (Example 1). The class given is cell-based. The note with it: for IC50: PC-3, 4 h treatment, read-out: IC50 cancer cell growth inhibition.
For another series, the system named is MCF-7/ADR. The description is as above. As to conditions: for IC50: 4 h treatment, read-out: IC50 cancer cell growth inhibition. It is filed as cell-based, human. The procedure:
(§1) This cell suspension was dispensed in 200 μL aliquots into 96-well tissue culture plates. Plates were then incubated for 24 h at 37° C. in a humidified atmosphere of 5% CO2 and 95% air. The medium was replaced with 180 μL of growth medium prior to addition of the prodrug. Doxsaliform was dissolved in DMSO containing 1% glacial acetic acid at concentrations ranging from 1 mM to 10 mM and sterile-filtered through a 0.45 μm nylon centrifuge filter. The concentration was then corrected by measuring the solution absorbance at 480 nm (ε=11 500 L/(mol·cm). Serial dilutions (1:10) were made in sterile DMSO to yield seven solutions of decreasing drug concentration at 100× the respective working concentrations. The resulting solutions were individually diluted 1:10 in RPMI 1640; 20 μL of the resulting 10× solution was immediately added to the appropriate lane of cells. Additionally, two lanes were treated with 20 μL growth medium containing 10% sterile DMSO and one lane was treated with 200 μL of 1.5 M Tris buffer. The cells were incubated at 37° C. for 4 h, at which time the drug solutions were replaced with 200 μL of fresh growth medium. […] The extent of colony formation was determined using a crystal violet staining assay.
(§2) The biological activities of several of the N-Mannich base derivatives were determined by their in vitro cytotoxicity against MCF-7 and MCF-7/ADR human breast cancer derived cell lines. While MCF-7 cells are sensitive to doxorubicin, the MCF-7/ADR cell line is an MCF-7 derivative which is characterized by its marked resistance to doxorubicin.

A further series concerns MCF-7. The series is described as above. As to conditions: for IC50: MCF-7, 4 h treatment, read-out: IC50 cancer cell growth inhibition. The class given is cell-based, human. The procedure: as §1, §2
Series [3] has as its target T1, ανβ3 integrin present on viable MDA-MB-435 cells (Homo sapiens, UniProt P05106+P06756).
T1 construct: endogenous in cells
The experiment in a line: Vitronectin cell adhesion (competition) assay. The class given is cell-based. As to conditions: MDA-MB-435 cell binding to vitronectin, 500 μM Mn2+; read-out: IC50 for inhibition of cell binding. From the text:
The data are presented as the mean fluorescence for each condition with the background, drug-free cell fluorescence subtracted.

Another series relates to MDA-MB-435. The experiment in a line: Breast cancer cell growth inhibition, 4 h treatment. Here is the method: (§3) Breast cancer cell growth inhibition: The ER-targeted DOX-formaldehyde conjugates, 11a-c, were evaluated against four breast cancer cell lines that differ in terms of estrogen receptor and multidrug resistance expression. MCF-7 cells are human breast adenocarcinoma cells that express estrogen receptor at a level of 195,000 sites/cell. MCF-7/Adr cells are an ER-negative, doxorubicin-resistant variant of the parent MCF-7 that express the multidrug resistance (MDR) phenotype. MDA-MB-231 and MDA-MB-435 are ER-negative human breast adenocarcinoma and ductal carcinoma cells, respectively. All cytotoxins were formulated as 100× solutions in DMSO/1% AcOH and delivered to cells as 1% DMSO (0.01% AcOH) in cell culture medium. In all experiments cell treatment lasted 4 h.
(§4) In Vitro cellular growth inhibition experiments: The IC50 for the targeted formaldehyde conjugates and all control compounds were performed as previously described with minor modifications. All compounds were solubilized in dimethylsulfoxide containing 1% v/v acetic acid. The concentrations of all 100× DMSO/1% AcOH drug solutions was determined spectrophotometrically by absorbance at 480 nm (ε=[…]). […] For every experiment each drug level and controls were performed in hexuplicate; each experiment was performed in at least duplicate. Error bars represent one standard deviation about the mean for the six wells per lane measured for each drug concentration.

In a further series the test system is MCF-7 cells. The description is as above. Here is the method: as §3, §4
Another series concerns MCF-7/Adr cells. Described as above. Here is the method:
as §3, §4

Series [4] concerns MDA-MB-435 cells. Nature of the series: Uptake of DOX, DOXSF and acyclic-RGD-4C-DOXSF by flow cytometry. The note with it: for RFU with 100 nM drug / RFU with 500 nM drug / RFU with 1000 nM drug: no additional Mn2+. It is filed as cell-based, human. Here is the method:
MDA-MB435 breast cancer cells in log phase growth were dissociated with trypsin-EDTA, counted, resuspended in media at 2×10^5 cells/mL, and plated into six-well plates (5.0×10^5 cells/well) and allowed to adhere overnight. Drug solutions of DOX, DOXSF, and ayclic-RGD-4C-DOXSF were prepared in DMSO with 1% acetic acid at 50 μM. Before treatment with drug, cell media was removed, cells were washed with HBSS (0.5 mL), and then fresh cell media, with or without 500 μM Mn^2+, was placed into the wells (2 mL). […] For each time point, the cell media was removed, cells were washed with HBSS, trypsinized, and trypsinization was quenched with 5 mL of cell media at 4° C. Cells were pelleted by centrifugation at 200 g for 5 min at 10° C. The supernatant was decanted, and the cells were resuspended in 5 mL of D-PBS at 4° C., repelleted, resuspended in 2 mL of D-PBS at 4° C., and placed on ice. […] The amount of drug uptake was measured by flow cytometry. Cells were analyzed with excitation at 488 nm (15 mW Ar ion laser), with emision monitored between 570 and 600 nm. Instrument settings were optimized for the cell line and held constant for all experiments; 10,000 cells were analyzed for each sample's anthracycline fluorescence. The data are presented as the mean fluorescence for each condition divided by the background, drug-free mean fluorescence.
Concentration of targeted drug relative to DOX and DOXSF in cells was determined from emission of the DOX fluorophore.
For orientation: A flow cytometer gives signals particle by particle.

Where [5] appears, read: MCF-7/Adr (−/+/+), 4 h treatment.

Read-outs that look alike come from different tables or passages of the source.

Turning to `COc1cccc2c1C(=O)c1c(O)c3c(c(O)c1C2=O)C[C@@](O)(C(=O)CO)C[C@@H]3O[C@H]1C[C@H](N)[C@H](O)[C@H](C)O1` [doxorubicin, reference compound], the IC50 (in general, the midpoint of a concentration-inhibition curve) in the series with MDA-MB-435 cells [1] (Homo sapiens, MDA-MB-435, 20 min, 20 min treatment) is 800 nM; with MDA-MB-435 cells [1] (Homo sapiens, MDA-MB-435, 1 h treatment), 300 nM; in the series with MDA-MB-435 cells [1] (Homo sapiens, MDA-MB-435, 4 h treatment), 120 nM; in [2] it was 300 nM; with MCF-7/ADR (Homo sapiens, NCI/ADR-RES) it was 8 µM; in the series on MCF-7 (Homo sapiens, MCF7), 300 nM. The IC50 is above 10 µM in series [3]; 150 ± 14 nM with MDA-MB-435 (Homo sapiens, MDA-MB-435, 4 h); 200 ± 26 nM with MCF-7 cells (Homo sapiens, MCF7, 4 h); 10000 ± 1300 nM in the series with MCF-7/Adr cells (Homo sapiens, NCI/ADR-RES, 4 h). In addition, the “RFU with 100 nM drug” value in the series on MDA-MB-435 cells [4] (30 min) came to 1.23 RFU; with MDA-MB-435 cells [4] (4 h) it was 1.90 RFU. Also, the entries for the “RFU with 500 nM drug” value in the series on MDA-MB-435 cells [4] (30 min) and with MDA-MB-435 cells [4] (4 h) were 2.12 RFU and 5.88 RFU, respectively. Moreover, the results for the “RFU with 1000 nM drug” value with MDA-MB-435 cells [4] (30 min) and in the series with MDA-MB-435 cells [4] (4 h) were 3.21 RFU and 12.03 RFU, respectively. Moreover, the “fold uptake more than acyclic-RGD-4C-DOXSF” value in the series on MDA-MB-435 cells [4] (1 h drug treatment) amounted to 3 fold.

As for `COc1cccc2c1C(=O)c1c(O)c3c(c(O)c1C2=O)C[C@@](O)(C(=O)CO)C[C@@H]3O[C@H]1C[C@H](NCNC(=O)c2ccccc2O)[C@H](O)[C@H](C)O1` [doxsaliform, N-(2-Hydroxybenzamido-methyl)-doxorubicin], the IC50 with MDA-MB-435 cells [1] (4 h treatment) was 50 nM; in [2], 80 nM; in the series on MCF-7/ADR, 0.8 µM; in the series on MCF-7, 80 nM; in [3], above 10 µM; in the series with MDA-MB-435 (MDA-MB-435 (−/+/−), 4 h treatment), 50 ± 9 nM. In addition, the IC50 in the series with MCF-7 cells (MCF-7 (ER/AEBS/MDR +/+/−), 4 h treatment) came to 70 ± 5 nM; in the series on MCF-7/Adr cells (setting [5]), 2000 ± 320 nM. For the same compound, the DOX/doxsaliform in series [2] (PC-3, fold increase in cytotoxicity, 4 h drug treatment) turned out to be 4; in the series on MCF-7/ADR (fold increase in cytotoxicity, 4 h drug treatment), 10; with MCF-7 (MCF-7, fold increase in cytotoxicity, 4 h drug treatment) it was 4. Also, in the series on MDA-MB-435 (MDA-MB-435), the “cytotoxicity relative to 11a-c” value is recorded as “equally cytotoxic”. Further, in the series with MCF-7 cells (MCF-7), the “fold less cytotoxic than 11a-c” value was 2-3 fold. Further, the “RFU with 100 nM drug” value amounted to 1.88 RFU in the series with MDA-MB-435 cells [4] (30 min) and 3.23 RFU in the series on MDA-MB-435 cells [4] (4 h). Further, the figures for the “RFU with 500 nM drug” value in the series with MDA-MB-435 cells [4] (30 min) and in the series on MDA-MB-435 cells [4] (4 h) were 5.55 RFU and 13.25 RFU, respectively. The “RFU with 1000 nM drug” value was 9.23 RFU in the series with MDA-MB-435 cells [4] (30 min) and 24.51 RFU with MDA-MB-435 cells [4] (4 h). Moreover, the “fold uptake higher than acyclic-RGD-4C-DOXSF and DOX” value in the series with MDA-MB-435 cells [4] (4 h, 500 nM) came out at 2 fold.

As for `CC/C(=C(/c1ccc(O)cc1)c1ccc(OCCN(C)CCOCCOCCO/N=C/c2ccc(O)c(C(=O)NCN[C@H]3C[C@H](O[C@H]4C[C@](O)(C(=O)CO)Cc5c(O)c6c(c(O)c54)C(=O)c4c(OC)cccc4C6=O)O[C@@H](C)[C@H]3O)c2)cc1)c1ccccc1` [11c, E/Z-N-(2-Hydroxy-5-{[2-(2-{2-[(2-{4-[1-(4-hydroxy-phenyl)-2-phenyl-but-1-enyl]-phenoxy}-ethyl)-methyl-amino]-ethoxy}-ethoxy)-ethoxyimino]-methyl}-benzamide)-doxorubicin], the IC50 is 40 ± 6 nM in the series on MDA-MB-435 (MDA-MB-435 (−/+/−), 4 h treatment, listed as DOX-TEG-TAM); 40 ± 6 nM in the series with MCF-7 cells (MCF-7 (ER/AEBS/MDR +/+/−), 4 h treatment, listed as DOX-TEG-TAM); 60 ± 9 nM with MCF-7/Adr cells (setting [5]). For the same compound, the “fold more active than doxorubicin” value in the series with MCF-7/Adr cells (MCF-7/Adr) is given as 140 fold. For the same compound, the “fold more cytotoxic than untargeted doxsaliform” value in the series on MCF-7/Adr cells (MCF-7/Adr) worked out at 28 fold.
